Measured values taken from patent US20240382600A1, “BIFUNCTIONAL DEGRADERS COMPRISING A TEAD BINDER” (Novartis AG, priority 2021, published 2024).

Legend:
MKN-45/Ubc-luc cells = test: Proliferation assay (resazurin/AlamarBlue), MKN-45; assay type: cell-based; conditions: MKN-45, 72 hours
Description: (§1) NCI-H2052 mesothelioma cells (RRID: CVCL_1518) bearing Hippo-pathway inactivating mutations upstream of YAP (homozygous deletion of LATS2 and mutation of NF2) were obtained from ATCC (American Type Culture Collection), while SF268 glioma cells (RRID: CVCL_1689) overexpressing YAP due to genomic amplification were obtained from the NCI (National Cancer Institute). MKN-45 gastric adenocarcinoma cells (RRID: CVCL_0434) genomically deleted for YAP were obtained from the JCRB (Japanese Collection of Research Bioresources) Cell Bank.
As a specificity control, MKN-45 cells were stably transduced with a Ubc-Luc reporter construct, in which constitutive expression of firefly luciferase is driven by the promoter of the ubiquitin C housekeeping gene.
(§2) Stock solutions of compounds were prepared at a concentration of 10 mM in DMSO and stored at 4° C. Where necessary to afford a full dose-response curve, the stock solutions were pre-diluted in DMSO to 1′000-fold the desired reduced start concentration. On the day after cell seeding, eleven 2-fold serial dilutions of each compound were dispensed directly into the cell assay plates using a HP 300D non-contact Digital Dispenser (TECAN). The final concentration of DMSO was normalized to 0.1% in all wells.
(§3) After incubation for 72 hours at 37° C., compound-mediated modulation of cell viability was quantified as follows. […] To enable differentiation of cytotoxic from cytostatic compound effects, the number of viable cells on the day of compound addition (day 0) was assessed in a separate cell plate and used to assess the extent of cell viability suppression as described in the following section.
(§4) For data analysis, the assay background value determined in wells containing medium, but no cells, was subtracted from all data points.
(§5) The extent of growth inhibition and potential cell kill was assessed by comparing the resorufin levels in compound-treated cells with those present at the time of compound addition. To this end, the following conditional concept was programmatically applied in HELIOS to calculate % growth (% G) for each compound-treated well: % G=(T−V0)/V0))*100 when T<V0, and % G=(T−V0)/(V−V0)))*100 when T≥V0, where V0 is the viability level at time of compound addition, while V and T represent vehicle-control and compound-treated viability levels, respectively, at the end of the compound incubation. 100%, 0% and −100% signify absence of growth inhibition, growth stasis, and complete cell kill, respectively. Compound concentrations leading to half-maximal growth inhibition (GI50) and residual cell viability at the highest tested compound concentration (Data(cmax), expressed in percent) were routinely calculated.

[1] = test system: MKN-45/Ubc-luc cells (unspecific inhibition of luciferase expression or activity); test: Reporter gene assay specificity control (Ubc-Luc), MKN-45; assay type: cell-based; conditions: MKN-45/Ubc-luc specificity control, 24 hrs
Description: as §1
As a specificity control, MKN-45 cells were stably transduced with a Ubc-Luc reporter construct, in which constitutive expression of firefly luciferase is driven by the promoter of the ubiquitin C housekeeping gene. The resulting cell line, MKN-45/Ubc-luc, was selected and maintained in growth medium (RPMI 1640 (Amimed Cat #1-41F01-I), 2 mM L-Glutamine (Amimed Cat #5-10K50-H), 10% fetal calf serum (Amimed Cat #2-01F30-I Lot K08815P), 1% MEM Non-essential amino acids (Amimed Cat #5-13K00-H), 1× Penicillin/Streptomycin (Amimed Cat #4-01F00-H)) containing 1 μg/ml blasticidin (Gibco Cat #A11139-03).
as §2
The ability of compounds to inhibit YAP-dependent transcription was assessed in NCI-H2052 Tet-On shYAP_2371 pLenti6 MCAT_Luc and SF268-MCAT_Luc, dox-i-shYAPLevy (Clone 13) cells, while specificity (lack of unspecific inhibition of luciferase expression or activity) was assessed in MKN-45/Ubc-luc cells. The individual cell lines were seeded at 2′500 cells/20 μl/well into white-wall, clear-bottom 384-well plates (Greiner, Cat #781098) and incubated over night at 37° C. prior to addition of serial compound dilutions as described above. Following incubation for 24 hrs at 37° C., compound-mediated modulation of reporter-gene activity was quantified 5 min after addition 20 μL […] BrightGlo (Promega Cat #E2620), by measuring luminescence intensity on a multi-mode plate-reader (TECAN) with an integration time of 100 ms.
as §4

[2] = test system: NCI-H2052 Tet-On shYAP_2371 pLenti6 MCAT_Luc cells; test: Proliferation assay (resazurin/AlamarBlue), NCI-H2052; assay type: cell-based; conditions: NCI-H2052, 72 hours
Description: as §1, §2, §3, §4, §5

[3] = test system: YAP-dependent transcription in SF268-MCAT_Luc_dox-i-shYAPLevy (Clone 13) cells; test: YAP reporter gene activity assay (MCAT-Luc), SF268; assay type: cell-based; conditions: SF268 MCAT_Luc, 24 hrs
[4] = test system: YAP-dependent transcription in NCI-H2052 Tet-On shYAP_2371 pLenti6 MCAT_Luc cells; test: YAP reporter gene activity assay (MCAT-Luc), NCI-H2052; assay type: cell-based; conditions: 24 hrs
[5] = biological target: Avi-humanTEAD4^217-434 / Cy5 labeled humanYAP^60-100 (Homo sapiens (Human), UniProt Q15561); test: In-vitro biochemical TR-FRET assay (TEAD4/YAP); assay type: binding; conditions: 1 h at room temperature
Sequence of Avi-humanTEAD4^217-434 / Cy5 labeled humanYAP^60-100 (Q15561 217-434): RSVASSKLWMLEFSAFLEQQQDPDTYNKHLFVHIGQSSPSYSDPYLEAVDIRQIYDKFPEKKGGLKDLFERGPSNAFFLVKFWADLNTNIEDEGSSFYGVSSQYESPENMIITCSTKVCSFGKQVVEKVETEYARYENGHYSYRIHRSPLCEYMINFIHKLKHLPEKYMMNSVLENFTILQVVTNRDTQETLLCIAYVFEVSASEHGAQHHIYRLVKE
Experimental: N-terminus Cy5 labeled humanYAP^60-100 (20 nM) was then added to this preparation. Compounds were dissolved at 10 mM in 100% DMSO and serial dilutions were made in 100% DMSO. The diluted compound solutions were incubated in white 384-well plates (Greiner Bio-One) for 1 h at room temperature with the above described mix. The final DMSO concentration present in the assay was 1%. […] The IC50 values were estimated by fitting the data by nonlinear fit regression (GraphPad Prism).

[6] = test system: SF268-MCAT_Luc_dox-i-shYAPLevy (Clone 13) cells; test: Proliferation assay (resazurin/AlamarBlue), SF268; assay type: cell-based; conditions: SF268, 72 hours
Description: as §1, §2, §3, §4, §5

SMILES | GI50 (MKN-45/Ubc-luc cells; Homo sapiens) [nM] | IC50 ([1]; Homo sapiens) [nM] | GI50 ([2]; Homo sapiens) [nM] | IC50 ([3]; Homo sapiens, SF-268) [nM] | IC50 ([4]; Homo sapiens) [nM] | IC50 [5] [nM] | GI50 (MKN-45/Ubc-luc cells) [nM] | IC50 [1] [nM] | GI50 [2] [nM] | IC50 [3] [nM] | IC50 [4] [nM] | GI50 ([6]; Homo sapiens, SF-268) [nM] | GI50 [6] [nM]
COc1ccc(C(N)=O)c(-c2c(Cl)c(F)cc3c2[C@H](C)[C@@](CN[C@H]2CC[C@H](C(=O)O)CC2)(c2ccccc2)O3)c1F (atropisomer, axis not shown) [C-I, (1S,4r)-4-((((2S,3S,4S)-4-(6-carbamoyl-2-fluoro-3-methoxyphenyl)-5-chloro-6-fluoro-3-methyl-2-phenyl-2,3-dihydrobenzofuran-2-yl)methyl)amino)cyclohexane-1-carboxylic acid] | > 2000 | > 2000 | 170 | 180 | 130 | 2.2 | – | – | – | – | – | > 2000 | –
COc1ccc(C(N)=O)c(-c2c(Cl)c(F)cc3c2[C@H](C)[C@@](CN[C@H]2CC[C@H](C(=O)OC)CC2)(c2ccccc2)O3)c1F [C-I-k, Methyl (1S,4r)-4-((((2S,3S,4S)-4-(6-carbamoyl-2-fluoro-3-methoxyphenyl)-5-chloro-6-fluoro-3-methyl-2-phenyl-2,3-dihydrobenzofuran-2-yl)methyl)amino)cyclohexane-1-carboxylate] | – | – | – | – | – | 1.9 | 4110 | 14300 | 27 | 33 | 40 | – | 390
COc1ccc(C(N)=O)c(-c2c(Cl)c(F)cc3c2[C@H](C)[C@@](CNCCCCCc2cccc4c2CN(C2CCC(=O)NC2=O)C4=O)(c2ccccc2)O3)c1F (stereo partly drawn) [Example 35, 2-((2S,3S,4S)-5-chloro-2-(((5-(2-(2,6-dioxopiperidin-3-yl)-1-oxoisoindolin-4-yl)pentyl)amino)methyl)-6-fluoro-3-methyl-2-phenyl-2,3-dihydrobenzofuran-4-yl)-3-fluoro-4-methoxybenzamide] | 33 | 44 | 35 | 23 | 32 | 7.2 | – | – | – | – | – | < 20 | –
CNC(=O)c1cnc(OCCOCCn2cc(-c3ccc4c(c3)CN(C3CCC(=O)NC3=O)C4=O)nn2)c(F)c1-c1c(Cl)c(F)cc2c1C[C@](c1ccccc1)([C@@H]1CCCN1)O2 (stereo partly drawn) [Example 32, 4-((2S,4S)-5-Chloro-6-fluoro-2-phenyl-2-((S)-pyrrolidin-2-yl)-2,3-dihydrobenzofuran-4-yl)-6-(2-(2-(4-(2-(2,6-dioxopiperidin-3-yl)-1-oxoisoindolin-5-yl)-1H-1,2,3-triazol-1-yl)ethoxy)ethoxy)-5-fluoro-N-methylnicotinamide] | > 20000 | > 20000 | 6290 | 2750 | 5900 | 23 | – | – | – | – | – | > 20000 | –

Now from value to compound, other results behind:

GI50 (MKN-45/Ubc-luc cells; Homo sapiens) [nM] | IC50 ([1]; Homo sapiens) [nM] | GI50 ([2]; Homo sapiens) [nM] | IC50 ([3]; Homo sapiens, SF-268) [nM] | IC50 ([4]; Homo sapiens) [nM] | IC50 [5] [nM] | GI50 (MKN-45/Ubc-luc cells) [nM] | IC50 [1] [nM] | GI50 [2] [nM] | IC50 [3] [nM] | IC50 [4] [nM] | SMILES | GI50 ([6]; Homo sapiens, SF-268) [nM] | GI50 [6] [nM]
> 200 | > 2000 | 31 | 0.45 | 4.2 | 19 | – | – | – | – | – | COc1ccc(C(N)=O)c(-c2c(Cl)c(F)cc3c2[C@H](C)[C@@](CN[C@H]2CC[C@H](C(=O)N4CCC(CC5CCN(C(=O)COc6cc(-c7scnc7C)ccc6CNC(=O)[C@@H]6C[C@@H](O)CN6C(=O)[C@@H](NC(=O)C6(F)CC6)C(C)(C)C)CC5)CC4)CC2)(c2ccccc2)O3)c1F (atropisomer, axis not shown) [Example 42, (2S,4R)-N-(2-(2-(4-((1-((1S,4r)-4-((((2S,3S,4S)-4-(6-carbamoyl-2-fluoro-3-methoxyphenyl)-5-chloro-6-fluoro-3-methyl-2-phenyl-2,3-dihydrobenzofuran-2-yl)methyl)amino)cyclohexane-1-carbonyl)piperidin-4-yl)methyl)piperidin-1-yl)-2-oxoethoxy)-4-(4-methylthiazol-5-yl)benzyl)-1-((S)-2-(1-fluorocyclopropane-1-carboxamido)-3,3-dimethylbutanoyl)-4-hydroxypyrrolidine-2-carboxamide] | 31 | –
> 20000 | > 20000 | 310 | 3.1 | 120 | 1.6 | – | – | – | – | – | COc1ccc(C(=O)N2CCC(OC3CN(C(=O)[C@H]4CC[C@H](NC[C@]5(c6ccccc6)Oc6cc(F)c(Cl)c(-c7c(C(N)=O)ccc(OC)c7F)c6[C@@H]5C)CC4)C3)CC2)cc1N1CCC(=O)NC1=O (atropisomer, axis not shown) [Example 8, 2-((2S,3S,4S)-5-chloro-2-((((1r,4S)-4-(3-((1-(3-(2,4-dioxotetrahydropyrimidin-1(2H)-yl)-4-methoxybenzoyl)piperidin-4-yl)oxy)azetidine-1-carbonyl)cyclohexyl)amino)methyl)-6-fluoro-3-methyl-2-phenyl-2,3-dihydrobenzofuran-4-yl)-3-fluoro-4-methoxybenzamide] | 120 | –
> 200 | > 2000 | 73 | 2.3 | 17 | 8.7 | – | – | – | – | – | COc1ccc(C(N)=O)c(-c2c(Cl)c(F)cc3c2[C@H](C)[C@@](CN[C@H]2CC[C@H](C(=O)N4CCC(C5CCN(C(=O)COc6cc(-c7scnc7C)ccc6CNC(=O)[C@@H]6C[C@@H](O)CN6C(=O)[C@@H](NC(=O)C6(F)CC6)C(C)(C)C)CC5)CC4)CC2)(c2ccccc2)O3)c1F (atropisomer, axis not shown) [Example 43, (2S,4R)-N-(2-(2-(1′-((1S,4r)-4-((((2S,3S,4S)-4-(6-carbamoyl-2-fluoro-3-methoxyphenyl)-5-chloro-6-fluoro-3-methyl-2-phenyl-2,3-dihydrobenzofuran-2-yl)methyl)amino)cyclohexane-1-carbonyl)-[4,4′-bipiperidin]-1-yl)-2-oxoethoxy)-4-(4-methylthiazol-5-yl)benzyl)-1-((S)-2-(1-fluorocyclopropane-1-carboxamido)-3,3-dimethylbutanoyl)-4-hydroxypyrrolidine-2-carboxamide] | 68 | –
